The target of one assay is T1, PDE5 (human platelet) (Homo sapiens, UniProt O76074).
T1 construct: PDE5 (human); from tissue; host or cells: human platelets
The assay can be described thus: PDE5 (human platelet) inhibition. The format is biochemical.

A further assay has as its system Rabbit Corpus Cavernosal. The assay can be described thus: Relaxation of phenylephrine precontracted rabbit corpus cavernosal strips. The format is cell-based. The settings on record: for IC50 / EC50: Oryctolagus cuniculus. The text has this: Recently some reports have stated that theophyllline has an adenosine […] antagonist and phosphodiesterase (PDE) inhibitor function. […] FIG. 4A illustrates the experimental results and the effects of compound 14 on phenylphrine precontracted rabbit corpus cavemosal in the absence and presence of L-NAME, methylene blue, ODQ. FIG. 4B illustrates the experimental results and the effects of compound 14 on phenylphrine precontracted rabbit corpus cavernosal in absence and presence of potassium channel blockers.

The next assay relates to intracavernous pressure. The experiment in a line: Intracavernous pressure and tumescence response in rabbits. The format is in vivo. The settings on record: 2 mg/kg in rabbits.

For the molecule “7-[12-({5-[(4-methylpiperazin-1-yl)sulfonyl]-2-propoxybenzyl}amino)ethyl] dimethylxanthine [Compound 35]”, 0.4 ± 0.1 nM corresponded to half-maximal inhibition against PDE5 (human platelet) (IC50). The “pEC50 (−log EC50) for relaxation” value in the assay on Rabbit Corpus Cavernosal came out at 8.25 ± 0.06.

“7-{2-[4-(nitrobenzene)piperazinyl]ethyl}-1,3-dimethylxanthine [Compound 9]”: in the assay on intracavernous pressure, the “Duration of tumescence response” value is 16 ± 1.2 min and the “Peak increased intracavernous pressure ΔICP (mmHg)” value came out at 25 ± 1.3 mmHg.

As for “7-{2-[(2-propoxybenzyl)aniino]ethyl}-3-isobutyl-1-methylxanthine [Compound 38]”, on PDE5 (human platelet), the IC50 (in general, the concentration at which inhibition is half-maximal) was 0.6 ± 0.2 nM. For the same molecule, the “pEC50 (−log EC50) for relaxation” value in the assay with Rabbit Corpus Cavernosal was found to be 8.16 ± 0.07.

In turn, `Cn1c(=O)c2c(ncn2CCN2CCN(c3ccccc3Cl)CC2)n(C)c1=O` [Compound 4, 7-{2-[4-(2-chlorophenyl)piperazinyl]ethyl}-1,3-dimethylxanthine] had an IC50 against PDE5 (human platelet) of 3.9 ± 0.1 nM. Further, in the assay on Rabbit Corpus Cavernosal, half-maximal inhibition (IC50) required 69.2 nM. Also, in the assay on intracavernous pressure, the “Duration of tumescence response” value is given as 14 ± 1.1 min and the “Peak increased intracavernous pressure ΔICP (mmHg)” value amounted to 14 ± 2.1 mmHg.

On to `Cn1c(=O)c2c(ncn2CCN2CCN(Cc3ccccc3)CC2)n(C)c1=O` [Compound 7, 7-{2-[4-benzylpiperazinyl]ethyl}-1,3-dimethylxanthine], for which the IC50 on PDE5 (human platelet) was 4.2 ± 0.2 nM; with Rabbit Corpus Cavernosal, 74.1 nM.

As to `COc1ccccc1N1CCN(CCn2cnc3c2c(=O)n(C)c(=O)n3C)CC1` [Compound 10, 7-{2-[4-(o-Methoxyphenyl)piperazinyl]ethyl}-1,3-dimethylxanthine], in the assay with intracavernous pressure, the “Duration of tumescence response” value turned out to be 13 ± 2.1 min and the “Peak increased intracavernous pressure ΔICP (mmHg)” value stood at 12 ± 1.6 mmHg.

For `CC(C)Cn1c(=O)n(C)c(=O)c2c1ncn2CCN1CCN(c2ncccn2)CC1` [Compound 12, 7-{2-[4-(2-Pyrimidyl)piperazinyl]ethyl}-3-isobutyl-1-methylxanthine], in the assay on intracavernous pressure, the “Duration of tumescence response” value came out at 15 ± 1.3 min and the “Peak increased intracavernous pressure ΔICP (mmHg)” value is given as 23 ± 1.5 mmHg.

Take `CC(C)Cn1c(=O)n(C)c(=O)c2c1ncn2CCN1CCN(c2ccccc2Cl)CC1` [Compound 14, 7-{2-[4-(2-chlorophenyl)piperazinyl]ethyl}-3-isobutyl-1-methylxanthine]: the IC50 on PDE5 (human platelet) is 3.8 ± 0.2 nM; in the assay on Rabbit Corpus Cavernosal, 14.5 nM. The EC50 (as a rule, the midpoint of the concentration-response curve) in the assay on Rabbit Corpus Cavernosal (Control (no drug pretreatment)) is 64.6 nM; with Rabbit Corpus Cavernosal (pretreatment 4-AP 100 μM), 1480 nM; in the assay on Rabbit Corpus Cavernosal (pretreatment Glibenclamide 1 μM), 269 nM; in the assay on Rabbit Corpus Cavernosal (pretreatment L-NAME 100 μM), 309 nM; in the assay with Rabbit Corpus Cavernosal (pretreatment Methylene blue 10 μM), 309 nM; in the assay on Rabbit Corpus Cavernosal (pretreatment ODQ 1 μM), 162 nM. Also, in the assay with Rabbit Corpus Cavernosal (pretreatment TEA 10 mM), the concentration giving a half-maximal response (EC50) was 9180 nM.

Take `CC(C)Cn1c(=O)n(C)c(=O)c2c1ncn2CCN1CCN(Cc2ccccc2)CC1` [Compound 17, 7-{2-[4-benzylpiperazinyl]ethyl}-3-isobutyl-1-methylxanthine]: the IC50 was 6.2 ± 0.2 nM at PDE5 (human platelet) and 22.9 nM in the assay with Rabbit Corpus Cavernosal.

As to `CC(C)Cn1c(=O)n(C)c(=O)c2c1ncn2CCN1CCN(C(=O)c2ccco2)CC1` [Compound 18, 7-{2-[4-(2-furoyl)piperazinyl]ethyl}-3-isobutyl-1-methylxanthine], in the assay on intracavernous pressure, the “Duration of tumescence response” value worked out at 18 ± 1.3 min and the “Peak increased intracavernous pressure ΔICP (mmHg)” value came out at 26 ± 1.4 mmHg.

On to `Cc1ccccc1S(=O)(=O)N1CCN(CCn2cnc3c2c(=O)n(C)c(=O)n3CC(C)C)CC1` [Compound 26, 7-(2-{4-[(2-methylphenyl)sulfonyl]piperazinyl}ethyl)-3-isobutyl-1-methylxanthine], for which the IC50 against PDE5 (human platelet) was 4.8 ± 0.2 nM; with Rabbit Corpus Cavernosal it was 38 nM.

Turning to `CCOc1ccc(S(=O)(=O)N2CCN(C)CC2)cc1CNCCn1cnc2c1c(=O)n(C)c(=O)n2C` [Compound 34, 7-[2-({5-[(4-methylpiperazin-1-yl)sulfonyl]-2-ethoxybenzyl}amino)ethyl] dimethylxanthine], on PDE5 (human platelet), the IC50 is 0.4 ± 0.2 nM. For the same molecule, the “pEC50 (−log EC50) for relaxation” value with Rabbit Corpus Cavernosal came out at 8.13 ± 0.05.

In the case of `CCCOc1ccc(C(N)=O)cc1CNCCn1cnc2c1c(=O)n(C)c(=O)n2CC(C)C` [Compound 41, 4-propoxy-3-({[2-(3-isobutyl-1-methyl-2,6-dioxo-1,2,3,6-tetrahydro-7H-purin-7-yl)ethyl]amino}methyl)benzamide], the values for the IC50 against PDE5 (human platelet) and in the assay on Rabbit Corpus Cavernosal were 0.8 ± 0.2 nM and 5.01 nM, respectively.

On PDE5 (human platelet), `CCCn1cnc2c1c(=O)n(C)c(=O)n2CC(C)C` [Compound 46] had an IC50 of 5.2 ± 0.1 nM. In addition, the “pEC50 (−log EC50) for relaxation” value with Rabbit Corpus Cavernosal stood at 7.96 ± 0.03.

(Values after patent US7550468B2, “Theophylline and 3-isobutyl-1 methylxanthine based N-7 substituted derivatives displaying inhibitory activities on PDE-5 phospodiesterase” (priority 2000, dated 2009).)
